Source: patent US8569298B2, “Pyridine compounds” (Astrazeneca AB, priority 2008, dated 2013)

These compounds were tested against T1, FAK enzyme (6 His tagged kinase domain, GenBank NP—722560) (Homo sapiens, UniProt Q05397) (assay: In vitro enzyme assay (a): sandwich ELISA of FAK tyrosine kinase activity on polyGAT peptide, TMB colorimetric endpoint). Conditions: in vitro Enzyme Assay test (a); ATP at Km; geometric mean of n > 1 measurements, values marked * tested once.
T1 construct: 6 His; made in house; host or cells: insect cell culture infected with baculovirus
Type: biochemical
Procedure, shortened: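 Recombinant His-tagged FAK kinase domain (baculovirus/insect cells) phosphorylated plate-coated polyGAT with ATP at Km, MgCl2/MnCl2, HEPES pH 7.4, 25 min at room temperature before EDTA stop. Phosphotyrosine detected by HRP-4G10 antibody and TMB absorbance at 450 nm; IC50 from 12-point curve anchored to DMSO and staurosporine controls.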

T1 sequence (Q05397 422-680 limits assumed): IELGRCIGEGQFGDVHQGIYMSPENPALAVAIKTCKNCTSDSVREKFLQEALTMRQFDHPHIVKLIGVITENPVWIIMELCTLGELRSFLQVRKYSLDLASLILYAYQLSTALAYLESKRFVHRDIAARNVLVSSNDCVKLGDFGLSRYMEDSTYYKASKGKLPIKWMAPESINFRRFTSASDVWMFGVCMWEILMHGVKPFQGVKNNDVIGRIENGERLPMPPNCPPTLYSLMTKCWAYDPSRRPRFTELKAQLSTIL

Question: For CN1CCc2cccc(Nc3cc(Nc4cnn(CC(=O)N5CCOCC5)c4)ncc3F)c2C1=O [Example 4.25, 8-[[5-fluoro-2-[[1-(2-morpholino-2-oxo-ethyl)pyrazol-4-yl]amino]-4-pyridyl]amino]-2-methyl-3,4-dihydroisoquinolin-1-one], which IC50 is on record?
Answer: The IC50 was 204 nM.

Question: CN1CCN(C(=O)Cn2cc(Nc3cc(Nc4cccc5c4C(=O)N(C)CC5)c(F)cn3)cn2)CC1 [Example 4.26, 8-[[5-fluoro-2-[[1-[2-(4-methylpiperazin-1-yl)-2-oxo-ethyl]pyrazol-4-yl]amino]-4-pyridyl]amino]-2-methyl-3,4-dihydroisoquinolin-1-one] was tested. Which IC50 did it give?
Answer: The IC50 was 199 nM.

Question: CNC1CCN(C(=O)Cn2cc(Nc3cc(Nc4cccc5c4C(=O)N(C)CC5)c(F)cn3)cn2)C1 (stereo not shown) [Example 4.27, 8-[[5-Fluoro-2-[[1-[2-(3-methylaminopyrrolidin-1-yl)-2-oxo-ethyl]pyrazol-4-yl]amino]-4-pyridyl]amino]-2-methyl-3,4-dihydroisoquinolin-1-one] was tested. Which IC50 did it give?
Answer: Its IC50 is 72 nM.

Question: Which IC50 does the source give for Cc1nn(C)cc1Nc1cc(Nc2ccc(N3CCN(C(C)C)CC3)c3c2C(=O)N(C)C3)c(F)cn1 [Example 4.28, 7-[[2-[(1,3-Dimethylpyrazol-4-yl)amino]-5-fluoro-4-pyridyl]amino]-4-(4-isopropylpiperazin-1-yl)-2-methyl-isoindolin-1-one] here?
Answer: The IC50 was 1120 nM.

Question: For CN1CCN(c2[nH]nc(Nc3cc(Nc4cccc5c4C(=O)N(C)CC5)c(F)cn3)c2C#N)CC1 [Example 4.29, 3-[[5-Fluoro-4-[(2-methyl-1-oxo-3,4-dihydroisoquinolin-8-yl)amino]-2-pyridyl]amino]-5-(4-methylpiperazin-1-yl)-1H-pyrazole-4-carbonitrile], which IC50 is on record?
Answer: The IC50 was 22700 nM.

Question: How did the IC50 turn out when Cc1nn(C)cc1Nc1cc(Nc2cccc3c2C(=O)N(C)CC3)c(C(F)(F)F)cn1 [Example 5.01, 8-[[2-[(1,3-dimethylpyrazol-4-yl)amino]-5-(trifluoromethyl)-4-pyridyl]amino]-2-methyl-3,4-dihydroisoquinolin-1-one] was run?
Answer: Its IC50 is 6 nM.

Question: For CNC(=O)c1c(Nc2cc(Nc3cn(C)nc3C)ncc2C(F)(F)F)cccc1OC [Example 5.02, 2-[[2-[(1,3-dimethylpyrazol-4-yl)amino]-5-(trifluoromethyl)-4-pyridyl]amino]-6-methoxy-N-methyl-benzamide], which IC50 is on record?
Answer: The IC50 was 9 nM.

Question: Cc1nn(C)cc1Nc1cc(Nc2cccc3c2C(=O)N(C)CCO3)c(C(F)(F)F)cn1 [Example 5.03, 6-[[2-[(1,3-dimethylpyrazol-4-yl)amino]-5-(trifluoromethyl)-4-pyridyl]amino]-4-methyl-2,3-dihydro-1,4-benzoxazepin-5-one] was tested. Which IC50 did it give?
Answer: Its IC50 is 6 nM.

Question: How did the IC50 turn out when CN1CCc2cccc(Nc3cc(Nc4ccnn4C)ncc3Cl)c2C1=O [Example 6.01, 8-[[5-chloro-2-[(2-methylpyrazol-3-yl)amino]-4-pyridyl]amino]-2-methyl-3,4-dihydroisoquinolin-1-one] was run?
Answer: Its IC50 is 6 nM.

Question: Cc1cc(Nc2cc(Nc3cccc4c3C(=O)N(C)CC4)c(Cl)cn2)n(C)n1 [Example 6.02, 8-[[5-chloro-2-[(2,5-dimethylpyrazol-3-yl)amino]-4-pyridyl]amino]-2-methyl-3,4-dihydroisoquinolin-1-one] was tested. Which IC50 did it give?
Answer: The IC50 was 7 nM.

Question: For Cc1c(Nc2cc(Nc3cccc4c3C(=O)N(C)CC4)c(Cl)cn2)cnn1C [Example 6.03, 8-[[5-chloro-2-[(1,5-dimethylpyrazol-4-yl)amino]-4-pyridyl]amino]-2-methyl-3,4-dihydroisoquinolin-1-one], which IC50 is on record?
Answer: The IC50 was 5 nM.

Question: CCn1cc(Nc2cc(Nc3cccc4c3C(=O)N(C)CC4)c(Cl)cn2)c(C)n1 [Example 6.04, 8-[[5-chloro-2-[(1-ethyl-3-methyl-pyrazol-4-yl)amino]-4-pyridyl]amino]-2-methyl-3,4-dihydroisoquinolin-1-one] was tested. Which IC50 did it give?
Answer: The IC50 was 6 nM.

Question: Which IC50 does the source give for CN1CCc2cccc(Nc3cc(Nc4cc(C5CC5)nn4C)ncc3Cl)c2C1=O [Example 6.05, 8-[[5-chloro-2-[(5-cyclopropyl-2-methyl-pyrazol-3-yl)amino]-4-pyridyl]amino]-2-methyl-3,4-dihydroisoquinolin-1-one] here?
Answer: Its IC50 is 10 nM.

Question: How did the IC50 turn out when CCn1nccc1Nc1cc(Nc2cccc3c2C(=O)N(C)CC3)c(Cl)cn1 [Example 6.06, 8-[[5-chloro-2-[(2-ethylpyrazol-3-yl)amino]-4-pyridyl]amino]-2-methyl-3,4-dihydroisoquinolin-1-one] was run?
Answer: Its IC50 is 4 nM.

Question: With CN1CCc2cccc(Nc3cc(Nc4ccn(C)n4)ncc3Cl)c2C1=O [Example 6.07, 8-[[5-chloro-2-[(1-methylpyrazol-3-yl)amino]-4-pyridyl]amino]-2-methyl-3,4-dihydroisoquinolin-1-one] as the compound, how does the IC50 read?
Answer: Its IC50 is 9 nM.

Question: With CCc1nn(C(C)(C)C)c(Nc2cc(Nc3cccc4c3C(=O)N(C)CC4)c(Cl)cn2)c1C [Example 6.08, 8-[[2-[(2-tert-butyl-5-ethyl-4-methyl-pyrazol-3-yl)amino]-5-chloro-4-pyridyl]amino]-2-methyl-3,4-dihydroisoquinolin-1-one] as the compound, how does the IC50 read?
Answer: Its IC50 is 5620 nM.

Question: For CC(C)Cn1cc(Nc2cc(Nc3cccc4c3C(=O)N(C)CC4)c(Cl)cn2)cn1 [Example 6.09, 8-[[5-chloro-2-[(1-isobutylpyrazol-4-yl)amino]-4-pyridyl]amino]-2-methyl-3,4-dihydroisoquinolin-1-one], which IC50 is on record?
Answer: Its IC50 is 71 nM.

Question: With CNC(=O)c1ccccc1Nc1cc(Nc2ccnn2C)ncc1C(F)(F)F [Example 8.01, N-methyl-2-[[2-[(2-methylpyrazol-3-yl)amino]-5-(trifluoromethyl)-4-pyridyl]amino]benzamide] as the compound, how does the IC50 read?
Answer: The IC50 was 6 nM.

Question: For CNC(=O)c1ccccc1Nc1cc(Nc2cc(C)nn2C)ncc1C(F)(F)F [Example 8.02, 2-[[2-[(2,5-dimethylpyrazol-3-yl)amino]-5-(trifluoromethyl)-4-pyridyl]amino]-N-methyl-benzamide], which IC50 is on record?
Answer: Its IC50 is 8 nM.

Question: Which IC50 does the source give for CNC(=O)c1ccccc1Nc1cc(Nc2cnn(C)c2C)ncc1C(F)(F)F [Example 8.03, 2-[[2-[(1,5-dimethylpyrazol-4-yl)amino]-5-(trifluoromethyl)-4-pyridyl]amino]-N-methyl-benzamide] here?
Answer: Its IC50 is 6 nM.

Question: Which IC50 does the source give for CCn1cc(Nc2cc(Nc3ccccc3C(=O)NC)c(C(F)(F)F)cn2)c(C)n1 [Example 8.04, 2-[[2-[(1-ethyl-3-methyl-pyrazol-4-yl)amino]-5-(trifluoromethyl)-4-pyridyl]amino]-N-methyl-benzamide] here?
Answer: The IC50 was 6 nM.

Question: Which IC50 does the source give for CCn1cc(Nc2cc(Nc3ccccc3C(=O)NC)c(C(F)(F)F)cn2)cn1 [Example 8.05, 2-[[2-[(1-ethylpyrazol-4-yl)amino]-5-(trifluoromethyl)-4-pyridyl]amino]-N-methyl-benzamide] here?
Answer: The IC50 was 14 nM.

Question: How did the IC50 turn out when CCn1ccc(Nc2cc(Nc3ccccc3C(=O)NC)c(C(F)(F)F)cn2)n1 [Example 8.06, 2-[[2-[(1-ethylpyrazol-3-yl)amino]-5-(trifluoromethyl)-4-pyridyl]amino]-N-methyl-benzamide] was run?
Answer: Its IC50 is 11 nM.

Question: CNC(=O)c1ccccc1Nc1cc(Nc2cc(C3CC3)nn2C)ncc1C(F)(F)F [Example 8.07, 2-[[2-[(5-cyclopropyl-2-methyl-pyrazol-3-yl)amino]-5-(trifluoromethyl)-4-pyridyl]amino]-N-methyl-benzamide] was tested. Which IC50 did it give?
Answer: Its IC50 is 26 nM.

Question: CCn1nccc1Nc1cc(Nc2ccccc2C(=O)NC)c(C(F)(F)F)cn1 [Example 8.08, 2-[[2-[(2-ethylpyrazol-3-yl)amino]-5-(trifluoromethyl)-4-pyridyl]amino]-N-methyl-benzamide] was tested. Which IC50 did it give?
Answer: Its IC50 is 10 nM.
